Experimental data taken from patent US7018996B2, “Antibiotics AW998A, AW998B, AW998C and AW998D” (Wyeth Holdings Corporation, priority 2002, dated 2006).
Converted amounts (≈) assume the structure as drawn. Like-named read-outs stand apart in the source and are kept apart here. Bridge positions count the residues as written; N and C are the ends. Square brackets hold non-standard residues; d marks the D form. Peptide text beside a SMILES is read from it. * marks the point of attachment. Tetradecenoyl(2E,13-Me) = CC(C)CCCCCCCCC/C=C/C(=O)*; X1 = CC(C)CCCCCCCC/C=C/C(=O)*; Pip = O=C(O)[CH]1CCCCN1; Dap = NC[CH](N)C(=O)O

Experiments:
Type in all cases: cell-based
S. pneumoniae GC 1894 = assay: MIC, broth dilution, S. pneumoniae GC 1894; details: Streptococcus pneumoniae, GC1894, 18 h, 18 hours at 35° C., read-out: Antimicrobial Activity (MIC)
Method: (§1) The minimum inhibitory concentration (MIC), the lowest concentration of the antibiotic which inhibits growth of the test organism, is determined by the broth dilution method using Muller-Hinton II […] (Baltimore Biological Laboratories) following the recommendations of the National Committee for Clinical Laboratory Standards [Methods for dilution antimicrobial susceptibility tests for bacteria that grow aerobically, approved standard M7-A2, National Committee for Clinical Laboratory Standards, Villanova, Pa.].
(§2) An inoculum level of 5×10^5 CFU/mL, and a range of antibiotic concentrations (64–0.06 μg/mL) is used. The MIC is determined after the microtiter plates are incubated for 18 hours at 35° C. in an ambient air incubator. The test organisms include a spectrum of Gram-positive bacteria comprised of Staphylococcus sp., Streptococcus sp. and Enterococcus sp.
(§3) The in vitro antibacterial activity of AW998A, AW998B, AW998C and AW998D is determined against a spectrum of Gram-positive and Gram-negative bacteria by a standard broth dilution method. Serial dilution of the compounds are made in Mueller-Hinton broth and inoculated with a bacterial suspension. The lowest concentration of compound that inhibited the growth of a bacterial strain after 18 hours of incubation at 35° C. is reported as the minimal inhibitory concentration (MIC) for that strain.

[1] = test system: S. aureus GC 4543 (Smith); assay: MIC, broth dilution, S. aureus GC 4543 (Smith); details: Staphylococcus aureus, 18 hours at 35° C., read-out: Antimicrobial Activity (MIC)
Method: as §1, §2, §3

S. aureus GC 1131 (MRSA) = assay: MIC, broth dilution, S. aureus GC 1131 (MRSA); details: Staphylococcus aureus, 18 hours at 35° C., read-out: Antimicrobial Activity (MIC)
Method: as §1, §2, §3

S. aureus GC 2216 (ATCC) = assay: MIC, broth dilution, S. aureus GC 2216 (ATCC); details: Staphylococcus aureus, 18 hours at 35° C., read-out: Antimicrobial Activity (MIC)
Method: as §1, §2, §3

[2] = test system: B. subtilis GC 6344 (168); assay: MIC, broth dilution, B. subtilis GC 6344 (168); details: Bacillus subtilis, 18 hours at 35° C., read-out: Antimicrobial Activity (MIC)
Method: as §1, §2, §3

[3] = test system: E. faecalis GC 4555 (ATCC); assay: MIC, broth dilution, E. faecalis GC 4555 (ATCC); details: Enterococcus faecalis, 18 hours at 35° C., read-out: Antimicrobial Activity (MIC)
Method: as §1, §2, §3

E. coli GC 4559 (wt) = assay: MIC, broth dilution, E. coli GC 4559 (wt); details: Escherichia coli, read-out: Antimicrobial Activity (MIC)
Method: as §1, §2
(§4) The test organisms also include a spectrum of Gram-negative bacteria comprised of E. coli GC, M. catarrhalis and H. influenzae.
as §3

[4] = test system: E. faecalis GC 2242 (VRE); assay: MIC, broth dilution, E. faecalis GC 2242 (VRE); details: Enterococcus faecalis, 18 hours at 35° C., read-out: Antimicrobial Activity (MIC)
Method: as §1, §2, §3

[5] = test system: M. catarrhalis GC 6907* (clinical); assay: MIC, broth dilution, M. catarrhalis GC 6907 (clinical); details: Moraxella catarrhalis, read-out: Antimicrobial Activity (MIC)
Method: as §1, §2, §4, §3

E.coil GC 4560 (imp) = assay: MIC, broth dilution, E.coil GC 4560 (imp); details: Escherichia coli, 18 h, read-out: Antimicrobial Activity (MIC)
Method: as §1, §2, §4, §3

[6] = test system: H. influenzae GC 6896 <> (ATTC); assay: MIC, broth dilution, H. influenzae GC 6896 (ATTC); details: Haemophilus influenzae, read-out: Antimicrobial Activity (MIC)
Method: as §1, §2, §4, §3

[7] = test system: C. albicans GC 3066 (Yeast); assay: MIC, broth dilution, C. albicans GC 3066 (Yeast); details: Candida albicans, read-out: Antimicrobial Activity (MIC)
[8] = S. pneumoniae GC 1894* (5% LHB)

Structure (SMILES) | MIC (S. pneumoniae GC 1894; [8]) [µg/mL] | MIC (S. pneumoniae GC 1894; S. pneumoniae GC 1894+ (THY)) [µg/mL] | MIC [1] [µg/mL] | MIC (S. aureus GC 1131 (MRSA)) [µg/mL] | MIC (S. aureus GC 2216 (ATCC)) [µg/mL] | MIC [2] [µg/mL] | MIC [3] [µg/mL] | MIC (E. coli GC 4559 (wt); 18 h) [µg/mL] | MIC [4] [µg/mL] | MIC ([5]; 18 h) [µg/mL] | MIC (E.coil GC 4560 (imp)) [µg/mL] | MIC ([6]; 18 h) [µg/mL] | MIC ([7]; 18 h) [µg/mL] | MIC (E. coli GC 4559 (wt); E. coli GC 4559 (wt), 18 hours at 35° C.) [µg/mL] | MIC ([5]; M. catarrhalis GC 6907* (clinical), 18 hours at 35° C.) [µg/mL] | MIC ([6]; H. influenzae GC 6896 <> (ATTC), 18 hours at 35° C.) [µg/mL] | MIC ([7]; C. albicans GC 3066 (Yeast), 18 hours at 35° C.) [µg/mL]
CC(C)CCCCCCCCC/C=C/C(=O)NC(CC(=O)O)C(=O)NC1CNC(=O)C2CCCN2C(=O)C(C(C)C)NC(=O)C(C(C)O)NC(=O)CNC(=O)C(CC(=O)O)NC(=O)CNC(=O)C(CC(=O)O)NC(=O)CNC(=O)C2CCCCN2C1=O (stereo not drawn) [AW998D] ({Tetradecenoyl(2E,13-Me)}-D[Dap][Pip]GDGDGTVP; lactam 2-C; configuration not given here) | 16 (≈ 13 µM) | 128 (≈ 104 µM) | 128 (≈ 104 µM) | 128 (≈ 104 µM) | 128 (≈ 104 µM) | 128 (≈ 104 µM) | 128 (≈ 104 µM) | > 128 | 128 (≈ 104 µM) | > 128 | > 128 | > 128 | > 128 |  |  |  | 
CCC(C)C1NC(=O)C(C(C)O)NC(=O)CNC(=O)C(CC(=O)O)NC(=O)CNC(=O)C(CC(=O)O)NC(=O)CNC(=O)C2CCCCN2C(=O)C(NC(=O)C(CC(=O)O)NC(=O)/C=C/CCCCCCCCC(C)C)CNC(=O)C2CCCN2C1=O (stereo not drawn) [AW998C] (X1-D[Dap][Pip]GDGDGTIP; lactam 2-C; configuration not given here) | 8 (≈ 6.49 µM) | 64 (≈ 51.9 µM) | 64 (≈ 51.9 µM) | 128 (≈ 104 µM) | 64 (≈ 51.9 µM) | 128 (≈ 104 µM) | 128 (≈ 104 µM) | > 128 | 128 (≈ 104 µM) | > 128 | > 128 | > 128 | > 128 |  |  |  | 
CCC(C)C1NC(=O)C(C(C)O)NC(=O)CNC(=O)C(CC(=O)O)NC(=O)CNC(=O)C(CC(=O)O)NC(=O)CNC(=O)C2CCCCN2C(=O)C(NC(=O)C(CC(=O)O)NC(=O)/C=C/CCCCCCCCCC(C)C)CNC(=O)C2CCCN2C1=O (stereo not drawn) [AW998A] ({Tetradecenoyl(2E,13-Me)}-D[Dap][Pip]GDGDGTIP; lactam 2-C; configuration not given here) | 4 (≈ 3.21 µM) | 2 (≈ 1.6 µM) | 8 (≈ 6.41 µM) | 16 (≈ 12.8 µM) | 8 (≈ 6.41 µM) | 32 (≈ 25.7 µM) | 32 (≈ 25.7 µM) |  | 64 (≈ 51.3 µM) |  | 32 (≈ 25.7 µM) |  |  | > 128 | > 128 | > 128 | 128 (≈ 103 µM)
